In article PMC10816625, “Targeting Alzheimer’s Disease: Evaluating the Efficacy of C-1 Functionalized N-Aryl-Tetrahydroisoquinolines as Cholinergic Enzyme Inhibitors and Promising Therapeutic Candidates” (International Journal of Molecular Sciences, 2024):
“Also recorded” adds a separate entry of the source.

Key:
eeAChE = molecular target: T1, eeAChE (Electrophorus electricus, UniProt O42275); test: biochemical; type: biochemical; settings: for IC50: Table 1, mean ± SD; for Selectivity Index for AChE: IC50(BChE)/IC50(AChE)
T1 construct: purchased Sigma-Aldrich C3389
Experimental: (§1) The abilities of synthesized 22 compounds to inhibit AChE and BuChE activity were determined following Ellman’s procedure using a Perkin Elmer Lambda 35 spectrophotometer with thermostated 1.00 cm quartz cells. AChE’s and BuChE’s stock solutions were diluted with 20 mM TRIS to give 1 unit per mL of enzymes’ activity. […] A 0.01 M DTNB solution was prepared with 0.1 M phosphate buffer (pH 7) containing 0.15% (w/v) sodium bicarbonate. A 0.1 M phosphate buffer (pH 8) was used for assay. pH was adjusted to 8.0 ± 0.1 by adding aliquots of concentrated HCl. Stock solutions (10 mM) of investigated compounds were prepared daily by dissolving solid compounds in DMSO. Diluted solutions were also prepared in DMSO.
(§2) Briefly, enzymes’ assays were prepared as follows. […] Thereafter, 20 μL of ASChI or BSChCI was added, after which the reaction was initiated. […] For the blank value, the addition of 20 μL of buffer replaced the enzyme solution while an addition of 7 μL of DMSO replaced the inhibitor solution. The control solution contained 7 μL of DMSO instead of the inhibitor. The screening test was performed at a 1 × 10^−5 M concentration, and the compounds with more than 50% of inhibition were further assayed using dilution series of up to eight increasing concentrations (10^−5 M to 10^−9 M). The inhibition potency was presented as the dependence on the relative enzyme activity (REA) as the function of the compound’s concentration. IC50 values were determined graphically from Hill curves using Origin 9 Microsoft Windows.

eqBuChE = molecular target: T2, eqBuChE (Equus caballus, UniProt P81908); test: biochemical; settings: Table 1; preincubation 6 min, incubation 6 min, 37 °C; mean ± SD; read-out: IC50 BuChE
T2 construct: butyrylcholinesterase (BuChE) from horse serum (C1057); purchased Sigma-Aldrich C1057; host or cells: horse serum
Experimental: as §1, §2

in vitro = settings: for Papp: pig, PAMPA; for PAMPA-BBB Permeability Pe: porcine polar brain lipids, UPLC quantification
Experimental: The assay was performed according to the method reported by Di et al. with slight modification. Commercial drugs, verapamil, and caffeine were used to validate the protocol. […] Each sample was analyzed with at least three independent experiments in three wells.

BuChE [1] = molecular target: T3, BuChE (Equus caballus, UniProt P81908); test: Trp fluorescence titration of BuChE; type: binding; settings: 5 IU/mL BuChE
T3 construct: butyrylcholinesterase (BuChE) from horse serum (C1057); purchased Sigma-Aldrich C1057; host or cells: horse serum
Experimental: (§3) Fluorescence titration studies were conducted using the Agilent Cary Eclipse fluorescence spectrophotometer. Fluorescence-quenching spectra were recorded within the wavelength range of 320–450 nm, with an excitation at 295 nm at room temperature. Excitation and emission slit widths were both set at 5 nm, and the scanning rate was fixed at 9600 nm/min. The concentration of enzymes was 5 IU/mL. The incubation time between each addition of THIQ aliquots was 6 min.

AChE [2] = molecular target: T4, AChE (Electrophorus electricus, UniProt O42275); test: Trp fluorescence-quenching titration of AChE; type: binding; settings: 5 IU/mL AChE
T4 construct: purchased Sigma-Aldrich C3389
Experimental: as §3

BuChE [3] = molecular target: T3, BuChE; test: Kinetic study of BuChE inhibition (Lineweaver-Burk); type: biochemical
Experimental: (§4) Kinetic studies of ChE enzymes were also performed using the above-mentioned modified Ellman’s method. The preincubation time was 6 min, while the incubation time was 2 min. The type of enzyme inhibition was justified by the Lineweaver–Burk plot (double reciprocal plot) for selected inhibitor concentrations, and substrate concentrations ranged from 0.01 to 1 mM. The kinetic parameters Km, Vmax, and Ki were determined. Graphs were plotted using Origin9 for Microsoft Windows.

AChE [4] = molecular target: T4, AChE; test: Kinetic study of AChE inhibition (Lineweaver-Burk); type: biochemical; settings: for Type of Inhibition (AChE): Lineweaver-Burk plot; for Ki: preincubation 6 min, incubation 2 min
Experimental: as §4

[5] = logP determination by UPLC; type: physicochemical; settings: reversed-phase ACQUITY UPLC BEH C18 column; UPLC method
Experimental: . The column used for logP determinations was ACQUITY UPLC BEH C18 column with the dimensions 1.7 μm × 100 mm × 2.1 mm (Waters). The measurements were performed in the isocratic mode. The eluent flow rate was 0.25 mL min^−1, and the injection volume was 5 μL. The mobile phase composition was a different percentage of acetonitrile and H2O (we ran a chromatogram for each compound with different eluent compositions and the acetonitrile fraction ranging from 64% to 91%). The wavelength of the optical detection was 256 nm, the retention times for every examined compound under certain experimental conditions were determined. At the beginning, the compound’s retention factor, k’, was determined for different percentages of acetonitrile in the mobile phases. The column’s dead time was determined by the injection of sodium bromide. After that, the retention factors for a pure aqueous eluent (log kw) were determined for the compounds with previously known logPo/w values as well as for the investigated compounds. […]

[6] = preincubation 6 min, incubation 6 min, 37 °C
[7] = excitation 295 nm, room temperature

T3 sequence (P81908 whole entry): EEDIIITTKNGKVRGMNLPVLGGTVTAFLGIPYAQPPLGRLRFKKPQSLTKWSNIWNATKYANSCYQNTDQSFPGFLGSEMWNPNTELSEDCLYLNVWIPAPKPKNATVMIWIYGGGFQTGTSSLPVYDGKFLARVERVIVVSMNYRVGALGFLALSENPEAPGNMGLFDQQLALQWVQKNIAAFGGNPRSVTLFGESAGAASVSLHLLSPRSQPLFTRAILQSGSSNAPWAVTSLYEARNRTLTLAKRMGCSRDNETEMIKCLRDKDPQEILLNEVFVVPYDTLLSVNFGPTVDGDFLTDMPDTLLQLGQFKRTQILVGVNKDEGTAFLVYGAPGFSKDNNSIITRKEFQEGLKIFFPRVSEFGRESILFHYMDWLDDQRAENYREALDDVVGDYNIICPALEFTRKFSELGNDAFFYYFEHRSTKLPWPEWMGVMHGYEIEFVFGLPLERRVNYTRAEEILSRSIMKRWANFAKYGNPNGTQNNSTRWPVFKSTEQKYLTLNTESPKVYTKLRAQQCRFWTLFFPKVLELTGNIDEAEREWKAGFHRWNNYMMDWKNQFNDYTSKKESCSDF
T2 sequence (P81908 whole entry): as above
T4 sequence (O42275 24-633): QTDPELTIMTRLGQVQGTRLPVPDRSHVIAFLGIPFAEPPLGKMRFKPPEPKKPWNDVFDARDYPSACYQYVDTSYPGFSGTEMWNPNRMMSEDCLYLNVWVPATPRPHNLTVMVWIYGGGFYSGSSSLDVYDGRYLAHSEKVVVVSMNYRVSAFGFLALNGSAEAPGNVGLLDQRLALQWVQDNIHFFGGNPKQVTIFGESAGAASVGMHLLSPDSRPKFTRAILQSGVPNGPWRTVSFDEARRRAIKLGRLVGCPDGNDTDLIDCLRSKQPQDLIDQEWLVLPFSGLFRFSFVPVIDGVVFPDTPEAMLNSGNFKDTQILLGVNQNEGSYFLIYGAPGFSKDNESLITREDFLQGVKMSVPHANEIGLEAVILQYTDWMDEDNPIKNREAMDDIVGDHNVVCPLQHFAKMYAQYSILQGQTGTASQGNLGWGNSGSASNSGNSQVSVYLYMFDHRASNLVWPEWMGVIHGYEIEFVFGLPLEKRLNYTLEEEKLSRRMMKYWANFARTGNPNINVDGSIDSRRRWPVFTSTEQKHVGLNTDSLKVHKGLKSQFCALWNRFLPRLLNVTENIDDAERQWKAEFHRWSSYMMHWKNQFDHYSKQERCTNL
T1 sequence (O42275 24-633): as above

Compound | IC50 (eeAChE; [6]) [µM] | IC50 (eqBuChE) [µM] | Selectivity Index for AChE (eeAChE) | other results
COc1cc2c(cc1OC)C(CCC(=O)CCc1ccccc1)N(c1ccc(F)cc1)CC2 (stereo not shown) [Compound 3l] | > 10 | > 10 |  | 
COc1ccc(N2CCc3ccccc3C2CC(=O)c2ccccc2)cc1 (stereo not shown) [Compound 3b] | 9.05 ± 0.81 | > 10 |  | 
COc1cc2c(cc1OC)C(CC(=O)c1ccccc1)N(c1ccc(C)cc1)CC2 (stereo not shown) [Compound 3e] | > 10 |  |  | 
COc1cc2c(cc1OC)C(CCC(=O)c1ccccc1)N(c1ccc(F)cc1)CC2 (stereo not shown) [Compound 3h] | > 10 | > 10 |  | 
COc1cc2c(cc1OC)C(CCC(=O)CCc1ccccc1)N(c1ccccc1)CC2 (stereo not shown) [Compound 3k] | 4.02 ± 0.19 | > 10 |  | 
Cn1c(=O)c2c(ncn2C)n(C)c1=O [Caffeine, reference compound] |  |  |  | Papp (in vitro): 1.47 ×10⁻⁶ cm/s
COc1cc2c(cc1OC)C(CC(C)=O)N(c1ccc(F)cc1)CC2 (stereo not shown) [Compound 2d] | > 10 | > 10 |  | 
CCC(=O)CC1c2cc(OC)c(OC)cc2CCN1c1ccccc1 (stereo not shown) [Compound 2e] | > 10 |  |  | 
COc1cc2c(cc1OC)C(CCC(=O)c1ccccc1)N(c1ccccc1)CC2 (stereo not shown) [Compound 3g] | 6.78 ± 0.22 | 8.01 ± 0.55 | 1.18 | 
N#CC1c2ccccc2CCN1c1ccccc1 (stereo not shown) [Compound 4a] | > 10 | > 10 |  | 
COc1cc2c(cc1OC)C(CC(C)=O)N(c1ccccc1)CC2 (stereo not shown) [Compound 2c] | 5.04 ± 0.28 | > 10 |  | 
O=C(CC1c2ccccc2CCN1c1ccccc1)c1ccccc1 (stereo not shown) [Compound 3a] | 4.29 ± 0.09 | 8.26 ± 1.05 | 1.93 | 
CC(=O)CC1c2ccccc2CCN1c1ccc(F)cc1 (stereo not shown) [Compound 2b] | 5.46 ± 0.58 | 8.9 ± 2.03 | 1.63 | 
O=C(CCc1ccccc1)CCC1c2ccccc2CCN1c1ccccc1 (stereo not shown) [Compound 3i] | 1.11 ± 0.04 | 2.72 ± 0.2 | 2.45 | Effect on Trp fluorescence of BuChE (BuChE [1]): fluorescence intensity of BuChE was increased; Quenching of Trp fluorescence of AChE (AChE [2]): quenching of Trp fluorescence was observed; n (number of binding sites) (AChE [2]): 0.94 ± 0.04; Ksv (AChE [2]; [7]): (6.96 ± 0.05) × 10^4 M^−1; kq (bimolecular quenching constant) (AChE [2]; [7]): (6.96 ± 0.05) × 10^14 M^−1s^−1; Type of Inhibition (BuChE) (BuChE [3]; Lineweaver-Burk plot): mixed type of inhibition (non-competitive/uncompetitive); also recorded: Mix non-competitive/uncompetitive; Ki (BuChE [3]; preincubation 6 min, incubation 2 min): 1.04 ± 0.1 µM; Type of Inhibition (AChE) (AChE [4]): Non-competitive; Ki (AChE [4]): 1.06 ± 0.01 µM; PAMPA-BBB Permeability Pe (in vitro): impossible to be detected; also recorded: High hydrophobicity; it retained in the membrane; chromatographic logP [5]: 3.78
COc1cc2c(cc1OC)C(CC(=O)c1ccccc1)N(c1ccc(F)cc1)CC2 (stereo not shown) [Compound 3d] | 4.89 ± 0.15 | > 10 |  | fold lower inhibitory activity towards AChE (eeAChE; compared to unsubstituted 3c): 2.5 fold
c1ccc(N2CCc3ccccc3C2)cc1 [Compound 1a, N-phenyl-1,2,3,4-tetrahydroisoquinoline] | > 10 | > 10 |  | Residual Activity at 1 × 10^−5 M AChE (eeAChE; 1 × 10^−5 M, preincubation 6 min, incubation 6 min, 37 °C): did not show inhibition potential
COc1cc2c(cc1OC)C(C#N)N(c1ccc(C)cc1)CC2 (stereo not shown) [Compound 4c] | > 10 | > 10 |  | 
O=C(CCC1c2ccccc2CCN1c1ccccc1)c1ccccc1 (stereo not shown) [Compound 3f] | 2.42 ± 0.09 | 6.28 ± 0.36 | 2.59 | PAMPA-BBB Permeability Pe (in vitro): impossible to be detected; also recorded: High hydrophobicity; it retained in the membrane; chromatographic logP [5]: 3.66
O=C(CCc1ccccc1)CCC1c2ccccc2CCN1c1ccc(F)cc1 (stereo not shown) [Compound 3j] | 2.91 ± 0.09 | 4.52 ± 0.15 | 1.55 | 
CC(=O)CC1c2ccccc2CCN1c1ccccc1 (stereo not shown) [Compound 2a] | > 10 | > 10 |  | 
COc1cc2c(cc1OC)C(CC(=O)c1ccccc1)N(c1ccccc1)CC2 (stereo not shown) [Compound 3c] | 1.95 ± 0.23 | > 10 | >5 | fold increase in inhibitory activity towards AChE (eeAChE; compared to compound 2c): 2.5 fold; Quenching of Trp fluorescence of AChE (AChE [2]): no quenching of Trp fluorescence; Type of Inhibition (AChE) (AChE [4]): Non-competitive; Ki (AChE [4]): 1.78 ± 0.1 µM; Papp (in vitro): 47.5 ×10⁻⁶ cm/s; PAMPA-BBB Permeability Pe (in vitro): successfully crossed the artificial blood−brain barrier; also recorded: able to cross the BBB; chromatographic logP [5]: 3.39
COc1cc2c(cc1OC)C(C#N)N(c1ccc(F)cc1)CC2 (stereo not shown) [Compound 4b] | > 10 | > 10 |  | 
